Assay results as given in patent US20240122930A1, “INTEGRIN INHIBITORS AND USES THEREOF IN COMBINATION WITH OTHER AGENTS” (Pliant Therapeutics, Inc., priority 2022, published 2024).
Read-outs that look alike come from different tables or passages of the source.

Tested on: participants with idiopathic pulmonary fibrosis (IPF)
[1] = 320 mg (n = 22), treatment up to 40 weeks
[2] = All 40-160 mg (n = 67), 12 weeks
[3] = All 40-320 mg (n = 88), 12 weeks
[4] = pooled 40-160 mg, With Background SoC (n = 55), 12 weeks
[5] = pooled 40-160 mg, With Background SoC nintedanib or pirfenidone (n = 55), 12 weeks
[6] = pooled 40-160 mg, Without Background SoC (n = 12), 12 weeks
[7] = single participant, 320 mg, after week 12, not drug related, resolved
[8] = single participant, 320 mg, after week 12, not drug related, resolved with sequalae

Excerpt: The groups were stratified for the use of nintedanib or pirfenidone. The groups were screened 28 days before the Day 1 of the study. At Day 1, baseline values were collected. During week 12, the subjects received the last dose, and the study was ended at week 14. Primary and secondary endpoints of the study included safety, tolerability, and PK. Exploratory endpoints included change in FVC over 12 weeks; High Resolution CT-based Quantitative Lung Fibrosis (QLF) imaging; patient-reported outcome (PRO): VAS-cough severity; and effect on selected biomarkers.
The groups were stratified for the use of nintedanib or pirfenidone. The screening was done 28 days before Day 1 and the baseline was measured on Day 1. The last dose was on Week 12, and the end of study was on Week 14. The primary and secondary endpoints include safety, tolerability, and PK. Exploratory Endpoints include change in Forced Vital Capacity (FVC) over 12 weeks, High Resolution CT-based Quantitative Lung Fibrosis (QLF) imaging, and effect on selected biomarkers.
The groups were stratified for the use of nintedanib or pirfenidone. The groups were screened 28 days before the Day 1 of the study. At Day 1, baseline values were collected. The study was continued up to Week 48. The treatment duration per protocol is at least 24 weeks and at most 48 weeks. For the study, the primary and secondary endpoints evaluated in the trial were safety, tolerability, and pharmacokinetics. The exploratory endpoints evaluated included the change in FVC over 12 and 24 weeks; high Resolution CT-based Quantitative Lung Fibrosis (QLF) imaging; patient-reported cough severity; and effect on selected biomarkers.

## COCCN(CCCCc1ccc2c(n1)NCCC2)CC[C@H](Nc1ncnc2ccccc12)C(=O)O [Compound 5, (S)-4-((2-methoxyethyl) (4-(5,6,7,8-tetrahydro-1,8-naphthyridin-2-yl)butyl)amino)-2-(quinazolin-4-ylamino) butanoic acid]
[1]
  TEAE Dyspnoea, participants reporting: 5 n
  TEAE Idiopathic Pulmonary Fibrosis related to study drug: 0 n
  TEAE Idiopathic Pulmonary Fibrosis, % of participants: (18.2) %
  TEAE Idiopathic Pulmonary Fibrosis, participants reporting: 4 n
  TEAE Leading to Death: 1 n
  TEAE Leading to Death, % of participants: (4.5) ^3%
  TEAE Leading to Early Termination from Study: 3 n
  TEAE Leading to Early Termination from Study, % of participants: (13.6) ^2,3,4%
  TEAE Leading to Interruption of Study Drug: 4 n
  TEAE Leading to Interruption of Study Drug, % of participants: (18.2) ^2%
  TEAE Leading to Withdrawal of Study Drug: 3 n
  TEAE Leading to Withdrawal of Study Drug, % of participants: (13.6) ^2,3,4%
  TEAE Upper respiratory tract infection related to study drug: 0 n
  TEAE Upper respiratory tract infection, % of participants: (9.1) %
  TEAE Upper respiratory tract infection, participants reporting: 2 n
  TEAE of CTCAE Grade 3 or Higher: 5 n
  TEAE of CTCAE Grade 3 or Higher related to study drug, % of participants: (4.5) ^1%
  TEAE of CTCAE Grade 3 or Higher, % of participants: (22.7) %
  TEAE related to study drug: 5 n
  TEAE related to study drug, % of participants: (22.7) %
  TEAE, % of participants: (90.9) %
  TEAE, participants reporting: 20 n
320 mg (n = 22), treatment up to 40 weeks, blood pressure increased
  TEAE of CTCAE Grade 3 or Higher related to study drug: 1 n
320 mg, long-term treatment up to 40 weeks
  Safety and tolerability: well tolerated
[2]
  Any AEs, % of participants: (68.7) %
  Any AEs, participants reporting: 46 n
  Serious TEAE: 3 n
  Serious TEAE related to study drug: 0 n
  Serious TEAE, % of participants: (4.5) %
  TEAE Diarrhea (any causality), % of participants: (17.9) %
  TEAE Diarrhea (any causality), participants reporting: 12 n
  TEAE Diarrhea related to study drug, % of participants: (11.9) %
  TEAE Diarrhea related to study drug, participants reporting: 8 n
  TEAE Leading to Death: 0 n
  TEAE Leading to Early Termination from Study: 0 n
  TEAE Leading to Interruption of Study Drug: 1 n
  TEAE Leading to Interruption of Study Drug, % of participants: (1.5) %
  TEAE Leading to Withdrawal of Study Drug: 0 n
  TEAE of CTCAE Grade 3 or Higher: 4 n
  TEAE of CTCAE Grade 3 or Higher related to study drug: 1 n
  TEAE of CTCAE Grade 3 or Higher related to study drug, % of participants: (1.5) %
  TEAE of CTCAE Grade 3 or Higher, % of participants: (6.0) %
  TEAE related to study drug: 15 n
  TEAE related to study drug, % of participants: (22.4) %
  TEAE, % of participants: (67.2) %
  TEAE, participants reporting: 45 n
[3]
  Any AEs, % of participants: 72.7%
  Any AEs, participants reporting: 64 n
  Serious TEAE: 4 n
  Serious TEAE related to study drug: 0 n
  Serious TEAE, % of participants: 4.5%
  TEAE Diarrhea (any causality), % of participants: 17.0%
  TEAE Diarrhea (any causality), participants reporting: 15 n
  TEAE Diarrhea related to study drug, % of participants: 11.4%
  TEAE Diarrhea related to study drug, participants reporting: 10 n
  TEAE Leading to Death: 1 n
  TEAE Leading to Death, % of participants: 1.1%
  TEAE Leading to Early Termination from Study: 3 n
  TEAE Leading to Early Termination from Study, % of participants: 3.4%
  TEAE Leading to Interruption of Study Drug: 2 n
  TEAE Leading to Interruption of Study Drug, % of participants: 2.3%
  TEAE Leading to Withdrawal of Study Drug: 3 n
  TEAE Leading to Withdrawal of Study Drug, % of participants: 3.4%
  TEAE of CTCAE Grade 3 or Higher: 6 n
  TEAE of CTCAE Grade 3 or Higher related to study drug: 1 n
  TEAE of CTCAE Grade 3 or Higher related to study drug, % of participants: 1.1%
  TEAE of CTCAE Grade 3 or Higher, % of participants: 6.8%
  TEAE related to study drug: 19 n
  TEAE related to study drug, % of participants: 21.6%
  TEAE, % of participants: 70.5%
  TEAE, participants reporting: 62 n
One participant, 40 mg, not treatment related, dose not changed, recovered/resolved
  SAE Acute respiratory failure: Standard Toxicity Grade: Grade 3
One participant, 160 mg, not treatment related, about 2 weeks after 12-week treatment, not recovered/not resolved
  SAE Idiopathic pulmonary fibrosis (acute exacerbation): Standard Toxicity Grade: Grade 3
One participant, 160 mg, not treatment related, underlying disease, recovered/resolved
  SAE Atrial flutter: Standard Toxicity Grade: Grade 3
One participant, 320 mg, GAP Stage III, after elective atrioventricular node ablation, not treatment related, drug withdrawn, fatal
  SAE Acute respiratory failure: Standard Toxicity Grade: Grade 5
One participant, 320 mg, receiving nintedanib, recovered/resolved
  AE leading to withdrawal, Diarrhea: Standard Toxicity Grade: Grade 1
[4]
  Any AEs, % of participants: (69.1) %
  Serious TEAE, % of participants: (5.5) %
  TEAE of CTCAE Grade 3 or Higher related to study drug, % of participants: (1.8) %
  TEAE of CTCAE Grade 3 or Higher, % of participants: (7.3) %
  TEAE related to study drug, % of participants: (23.6) %
  TEAE, % of participants: (67.3) %
[5]
  Any AEs, participants reporting: 38 n
  Serious TEAE: 3 n
  Serious TEAE related to study drug: 0 n
  TEAE Leading to Death: 0 n
  TEAE Leading to Early Termination from Study: 0 n
  TEAE Leading to Interruption of Study Drug: 0 n
  TEAE Leading to Withdrawal of Study Drug: 0 n
  TEAE of CTCAE Grade 3 or Higher: 4 n
  TEAE of CTCAE Grade 3 or Higher related to study drug: 1 n
  TEAE related to study drug: 13 n
  TEAE, participants reporting: 37 n
[6]
  Any AEs, % of participants: (66.7) %
  Any AEs, participants reporting: 8 n
  Serious TEAE: 0 n
  Serious TEAE related to study drug: 0 n
  TEAE Leading to Death: 0 n
  TEAE Leading to Early Termination from Study: 0 n
  TEAE Leading to Interruption of Study Drug: 1 n
  TEAE Leading to Interruption of Study Drug, % of participants: (8.3) %
  TEAE Leading to Withdrawal of Study Drug: 0 n
  TEAE of CTCAE Grade 3 or Higher: 0 n
  TEAE of CTCAE Grade 3 or Higher related to study drug: 0 n
  TEAE related to study drug: 2 n
  TEAE related to study drug, % of participants: (16.7) %
  TEAE, % of participants: (66.7) %
  TEAE, participants reporting: 8 n
Same participant, 40 mg, not treatment related, removed carpet from home without a mask, recovered/resolved
  SAE Pneumonia: Standard Toxicity Grade: Grade 2
Single participant, 320 mg, Week 29, not drug related, resolved with sequalae
  SAE Iron Deficiency anemia: Standard Toxicity Grade: Grade 3
Single participant, 320 mg, after week 12 (Week 21 hospitalization), not drug related, resolved
  SAE Ileus: Standard Toxicity Grade: Grade 3
[7]
  SAE Acute Kidney Injury: Standard Toxicity Grade: Grade 2
  SAE Gastritis: Standard Toxicity Grade: Grade 2
  SAE Hyperlactatemia: Standard Toxicity Grade: Grade 2
[8]
  SAE Acute Left Heart Failure: Standard Toxicity Grade: Grade 3
  SAE Gastric Ulcer: Standard Toxicity Grade: Grade 3
  SAE Haemorrhagic arteriovenous malformation: Standard Toxicity Grade: Grade 3
